Laboratory results from ChEMBL document CHEMBL5154651, “Substituent effect of benzyl moiety in nitroquinoxaline small molecules upon DNA binding: Cumulative destacking of DNA nucleobases leading to histone eviction” (Eur J Med Chem, 2022).
The source made the active and inactive calls. The rule behind the calls is not given here.

Tests used:
GC rich DNA [1] = test: Displacement of Ethidium bromide from native ds-GC12 short DNA (unknown origin) by Stern-Volmer quenching plot analysis; format: nucleic-acid assay
GC rich DNA [2] = test: Disruption of native ds-GC12 DNA (unknown origin) base stacking interaction assessed as decrease in positive peak intensity at 283 nm at DNA base-pair to compound ratio of 1:4 by circular dichroism analysis; format: nucleic-acid assay
DNA [3] = test: Induction of GC-rich pYUB12 plasmid DNA (unknown origin) unwinding assessed as DNA structural changes at DNA base-pair to compound ratio of 1:6 incubated for 16 hrs by mobility shift assay; format: nucleic-acid assay
GC rich DNA [4] = test: Disruption of native ds-GC12 DNA (unknown origin) base stacking interaction assessed as decrease in positive peak intensity at 283 nm by circular dichroism analysis; format: nucleic-acid assay
GC rich DNA [5] = test: Disruption of native ds-GC12 DNA (unknown origin) base stacking interaction assessed as appearance of ICD at 320 to 330 nm by circular dichroism analysis; format: nucleic-acid assay
DNA [6] = test: Induction of GC-rich pYUB12 plasmid DNA (unknown origin) unwinding assessed as DNA structural changes at DNA base-pair to compound ratio of 1:4 incubated for 16 hrs by mobility shift assay; format: nucleic-acid assay
HCT-116 [7] = test: Induction of DNA double strand breaks in human HCT-116 cells incubated for 24 hrs by neutral comet assay; format: functional, cell-based; details: dose 0.5-0.75 µM, DDE = dose-dependent effect
GC rich DNA [8] = test: Binding affinity to native ds-GC12 DNA assessed as increase in transition temperature of oligonucleotides at DNA-base pair to compound ratio of 1:4 by differential scanning calorimetry melting based analysis; format: nucleic-acid assay
GC rich DNA [9] = test: Disruption of native ds-GC12 DNA base (unknown origin) stacking interaction assessed as change in peak intensity at 283 nm at 15 to 60 uM by ellipticity plot based analysis; format: nucleic-acid assay; details: dose 15-60 µM
HCT-116 [10] = test: Induction of apoptosis in human HCT-116 cells assessed as viable cells at 1 uM incubated for 24 hrs by Annexin V-FITC and propidium iodide staining based flow cytometry analysis (reference value: 95.3%); format: functional; details: read-out: Activity
DNA [11] = test: Induction of GC-rich pYUB12 plasmid DNA (unknown origin) superstructure formation assessed as DNA compaction with DNA over-supercoiling at DNA base-pair to compound ratio of 1:1.5 by Atomic Force Microscopic analysis; format: nucleic-acid assay
HCT-116 [12] = test: Induction of apoptosis in human HCT-116 cells assessed as late apoptotic cells at 0.75 uM incubated for 24 hrs by Annexin V-FITC and propidium iodide staining based flow cytometry analysis (reference value: 0.3%); format: functional
HCT-116 [13] = test: Induction of DNA damage in human HCT-116 cells assessed as induction of phosphorylation of gamma-H2AX variant incubated for 4 hrs by DAPI staining based immunofluorescence analysis; format: functional, cell-based; details: HCT-116, 4 h
Calf thymus DNA [14] = test: Binding affinity to calf thymus DNA assessed as change in enthalpy by isothermal titration calorimetry; format: nucleic-acid assay; details: Bos taurus
[15] = Induction of histone eviction from single assembled nucleosome (unknown origin) assessed as maximum unwrapping of histone from nucleosome at 25 uM incubated for 4 hrs by silver staining based gel electrophoresis assay
HCT-116 [16] = test: Induction of apoptosis in human HCT-116 cells assessed as necrotic cells at 0.75 uM incubated for 24 hrs by Annexin V-FITC and propidium iodide staining based flow cytometry analysis (reference value: 3.9%); format: functional
DNA [17] = test: Induction of GC-rich pYUB12 plasmid DNA (unknown origin) superstructure formation assessed as uncoiling of DNA with nodes and loops formation and DNA compaction at DNA base-pair to compound ratio of 1:0.5 by Atomic Force Microscopic analysis; format: nucleic-acid assay
HCT-116 [18] = test: Induction of apoptosis in human HCT-116 cells assessed as viable cells at 0.5 uM incubated for 24 hrs by Annexin V-FITC and propidium iodide staining based flow cytometry analysis (reference value: 95.3%); format: functional; details: read-out: Activity
Calf thymus DNA [19] = test: Binding affinity to calf thymus DNA assessed as change in entropy by isothermal titration calorimetry; format: nucleic-acid assay; details: Bos taurus
Calf thymus DNA [20] = test: Binding affinity to calf thymus DNA assessed as change in free energy by isothermal titration calorimetry; format: nucleic-acid assay; details: Bos taurus
HCT-116 [21] = test: Induction of apoptosis in human HCT-116 cells assessed as late apoptotic cells at 0.5 uM incubated for 24 hrs by Annexin V-FITC and propidium iodide staining based flow cytometry analysis (reference value: 0.3%); format: functional
GC rich DNA [22] = test: Binding affinity to native ds-GC12 DNA assessed as shift in melting temperature at DNA-base pair to compound ratio of 1:1 by differential scanning calorimetry melting based analysis; format: nucleic-acid assay
DNA [23] = test: Binding affinity to GC-rich pYUB12 plasmid DNA (unknown origin) assessed as induction of DNA unwinding by measuring band shifting at DNA base-pair to compound ratio of 1:1 incubated for 16 hrs by mobility shift assay; format: nucleic-acid assay
HCT-116 [24] = test: Induction of DNA double strand breaks in human HCT-116 cells assessed as increase in tail length at 0.5 to 0.75 uM incubated for 24 hrs by neutral comet assay; format: functional, cell-based; details: dose 0.5-0.75 µM
HCT-116 [25] = test: Cytotoxicity against human HCT-116 cells assessed as reduction in cell viability incubated for 24 hrs by MTT assay; format: functional, cell-based; details: HCT-116, 24 h
HCT-116 [26] = test: Induction of apoptosis in human HCT-116 cells assessed as late apoptotic cells at 1 uM incubated for 24 hrs by Annexin V-FITC and propidium iodide staining based flow cytometry analysis (reference value: 0.3%); format: functional
Supercoiled DNA = test: Induction of GC-rich pYUB12 plasmid DNA (unknown origin) unwinding assessed as complete structural change by measuring decrease in band intensity of supercoiled DNA at DNA base-pair to compound ratio of 1:1.5 incubated for 16 hrs by mobility shift assay; format: nucleic-acid assay
HCT-116 [27] = test: Induction of apoptosis in human HCT-116 cells assessed as increase in uptake of fluorescent nucleotide at 0.5 to 0.75 uM incubated for 4 hrs by TUNEL assay; format: functional, cell-based; details: dose 0.5-0.75 µM
GC rich DNA [28] = test: Binding affinity to native ds-GC12 DNA assessed as reduction in melting temperature at DNA-base pair to compound ratio of 1:1 by differential scanning calorimetry melting based analysis; format: nucleic-acid assay
HCT-116 [29] = test: Induction of apoptosis in human HCT-116 cells assessed as early apoptotic cells at 1 uM incubated for 24 hrs by Annexin V-FITC and propidium iodide staining based flow cytometry analysis (reference value: 0.6%); format: functional
Calf thymus DNA [30] = test: Binding affinity to calf thymus DNA by isothermal titration calorimetry; format: nucleic-acid assay; details: Bos taurus
HCT-116 [31] = test: Induction of apoptosis in human HCT-116 cells assessed as necrotic cells at 0.5 uM incubated for 24 hrs by Annexin V-FITC and propidium iodide staining based flow cytometry analysis (reference value: 3.9%); format: functional
[32] = Induction of histone eviction from single assembled nucleosome (unknown origin) assessed as reduction in nucleosome band intensity at 60 uM incubated for 4 hrs by silver staining based gel electrophoresis assay
GC rich DNA [33] = test: Disruption of native ds-GC12 DNA (unknown origin) base stacking interaction assessed as deformation of DNA native structure at DNA base-pair to compound ratio of 1:4 by circular dichroism analysis; format: nucleic-acid assay
HCT-116 [34] = test: Induction of apoptosis in human HCT-116 cells assessed as early apoptotic cells at 0.5 uM incubated for 24 hrs by Annexin V-FITC and propidium iodide staining based flow cytometry analysis (reference value: 0.6%); format: functional
HCT-116 [35] = test: Induction of DNA damage in human HCT-116 cells assessed as induction of phosphorylation of gamma-H2AX variant at 0.75 uM incubated for 4 hrs by DAPI staining based immunofluorescence analysis; format: functional, cell-based
HCT-116 [36] = test: Induction of apoptosis in human HCT-116 cells assessed as necrotic cells at 1 uM incubated for 24 hrs by Annexin V-FITC and propidium iodide staining based flow cytometry analysis (reference value: 3.9%); format: functional
DNA [37] = test: Induction of GC-rich pYUB12 plasmid DNA (unknown origin) superstructure formation assessed as height of plasmid DNA at DNA base-pair to compound ratio of 1:1.5 by Atomic Force Microscopic analysis (reference value: 0.26 +/-0.08 nm); format: nucleic-acid assay
HCT-116 [38] = test: Induction of apoptosis in human HCT-116 cells assessed as viable cells at 0.75 uM incubated for 24 hrs by Annexin V-FITC and propidium iodide staining based flow cytometry analysis (reference value: 95.3%); format: functional; details: read-out: Activity
DNA [39] = test: Induction of GC-rich pYUB12 plasmid DNA (unknown origin) unwinding assessed as complete structural change with DNA condensation by measuring increase in condensed DNA band intensity at DNA base-pair to compound ratio of 1:1.5 incubated for 16 hrs by mobility shift assay; format: nucleic-acid assay
HCT-116 [40] = test: Induction of apoptosis in human HCT-116 cells assessed as early apoptotic cells at 0.75 uM incubated for 24 hrs by Annexin V-FITC and propidium iodide staining based flow cytometry analysis (reference value: 0.6%); format: functional
[41] = Induction of histone eviction from single assembled nucleosome (unknown origin) assessed as unwrapping of histone from nucleosome at 15 to 20 uM incubated for 4 hrs by silver staining based gel electrophoresis assay; details: dose 15-20 µM
DNA [42] = test: Induction of GC-rich pYUB12 plasmid DNA (unknown origin) superstructure formation assessed as DNA compaction with distorted structure at DNA base-pair to compound ratio of 1:1 by Atomic Force Microscopic analysis; format: nucleic-acid assay
DNA [43] = test: Induction of GC-rich pYUB12 plasmid DNA (unknown origin) unwinding assessed as complete conformational change as condensed form at DNA base-pair to compound ratio of 1:2 incubated for 16 hrs by mobility shift assay; format: nucleic-acid assay

For COc1ccc(CNc2nc3ccc([N+](=O)[O-])cc3nc2NCCCN(C)C)cc1, the KSV (GC rich DNA [1]) was < 1 10^4/M, the Activity (GC rich DNA [2]) was “Active” and the Activity (DNA [3]) was “Active”.

For CN(C)CCCNc1nc2cc([N+](=O)[O-])ccc2nc1NCc1ccc(Cl)cc1, the Activity (GC rich DNA [4]) was “Active”, the Activity (GC rich DNA [5]) was “Active” and the KSV (GC rich DNA [1]) was 2.4 10^4/M. The Activity (DNA [6]) was “Active”.

For CN(C)CCCNc1nc2cc([N+](=O)[O-])ccc2nc1NCc1ccc(F)cc1, the KSV (GC rich DNA [1]) was 1.26 10^4/M and the Activity (GC rich DNA [2]) was “Active”.

With CN(C)CCCNc1nc2cc([N+](=O)[O-])ccc2nc1NCc1ccc(I)cc1 the Activity (HCT-116 [7]) was “Dde”, the Activity (GC rich DNA [4]) was “Active” and the ΔTm (GC rich DNA [8]) was 12 °C. For the same compound, the KSV (GC rich DNA [1]) was 5.8 10^4/M, the Activity (GC rich DNA [9]) was “Active” and the viability at 1 µM (HCT-116 [10]) was 3%. The Activity (DNA [11]) was “Active”, the Activity (HCT-116 [12]) was 21.1% and the IC50 (HCT-116 [13]) was 500 nM. For the same compound, the deltaH (Calf thymus DNA [14]) was -1.75 kcal/mol, the Activity [15] was “Active” and the Activity (HCT-116 [16]) was 0.4%. For the same compound, the Activity (DNA [17]) was “Active”, the viability at 0.5 µM (HCT-116 [18]) was 2.2% and the TdeltaS (Calf thymus DNA [19]) was 6.12 kcal/mol. The deltaG (Calf thymus DNA [20]) was -7.87 kcal/mol, the Activity (HCT-116 [21]) was 18.2% and the Activity (DNA [3]) was “Active”. The Tm (GC rich DNA [22]) was 49.5 °C, the Activity (DNA [23]) was “Active” and the Activity (HCT-116 [24]) was “Active”. For the same compound, the IC50 (HCT-116 [25]) was 440 nM, the Activity (HCT-116 [26]) was 27% and the Activity (Supercoiled DNA) was “Active”. The Activity (HCT-116 [27]) was “Active”, the ΔTm (GC rich DNA [28]) was 2.5 °C and the Activity (HCT-116 [29]) was 69.3%. The Ka (Calf thymus DNA [30]) was 4.66 10^5/M, the Activity (HCT-116 [31]) was 0.3% and the Activity [32] was “Active”. For the same compound, the Activity (GC rich DNA [33]) was “Active”, the Activity (HCT-116 [34]) was 79.2% and the Activity (HCT-116 [35]) was “Active”. The Activity (HCT-116 [36]) was 0.7%, the Activity (DNA [37]) was 1.48 nm and the viability at 0.75 µM (HCT-116 [38]) was 1.7%. The Activity (DNA [39]) was “Active”, the Activity (HCT-116 [40]) was 76.8% and the Activity [41] was “Active”. The Activity (DNA [42]) was “Active”.

In the case of CN(C)CCCNc1nc2cc([N+](=O)[O-])ccc2nc1NCc1ccncc1, the KSV (GC rich DNA [1]) is reported as < 0.3 10^4/M.

For CN(C)CCCNc1nc2cc([N+](=O)[O-])ccc2nc1NCc1ccc(N)cc1, the KSV (GC rich DNA [1]) was < 1 10^4/M, the Activity (GC rich DNA [2]) was “Active” and the Activity (DNA [3]) was “Active”.

In the case of O=[N+]([O-])c1ccc2nc(NCc3ccccc3)c(N3CCCCC3)nc2c1, the KSV (GC rich DNA [1]) is reported as 0.19 10^4/M and the IC50 (HCT-116 [25]) is reported as > 50000 nM.

In the case of CN(C)CCCNc1nc2cc([N+](=O)[O-])ccc2nc1NCc1ccc(Br)cc1, the Activity (GC rich DNA [4]) is reported as “Active”, the Activity (GC rich DNA [5]) is reported as “Active” and the KSV (GC rich DNA [1]) is reported as 2.8 10^4/M. The Activity (DNA [3]) was “Active” and the Activity (DNA [43]) was “Active”.
